# Laboratory results reported in patent publication US4272541A, “7,8 and 7-8 Substituted 4,5α-epoxymorphinan-6-one compounds, and methods of treating pain and drug dependence with them” (Miles Laboratories, Inc., priority 1979, dated 1981).
# Structures can show the parent of a compound that is named as a salt. Where two headings read alike, the source gives them in different places.
# Assays:
# writhing = experiment: Acetic acid mouse writhing test (analgesic effects); type: in vivo, mice (male CD-1); details: for analgesic activity / analgesic/narcotic antagonist profile: in words; for analgesic/narcotic antagonist profile: from writhing ED50 and tail flick AD50 together
# Method: (A) Analgesic effects upon mice (acetic acid writhing test).
# TEST A. ACETIC ACID MOUSE WRITHING TEST
# The analgesic effects of test compounds were determined in mice by use of the acetic acid writhing test described by B. J. R. Whittle, Brit. J. Pharmacol., 22:246 (1964). In this test at least three groups of five male CD-1 mice (18-22 g) each were given subcutaneous doses of the test drug dissolved in either distilled water or distilled water acidified with HCl depending on the solubility of the compound. In all cases, 0.4 milliliter of a 0.5% V/V acetic acid in distilled water solution was administered intraperitoneally 15 minutes post drug. The number of writhes in a 20 min. interval beginning 5 minutes after the acetic acid injection were determined and compared with the number of writhes in control groups which had received only acetic acid.
# Percent inhibition of writhing was calculated as: [formula]
# The ED50 dose, i.e., the dose required to reduce the number of writhes by 50%, was determined graphically from a plot of % inhibition as a probit versus log dose. Confidence limits of 95% were calculated on the basis of those results falling in the range 16-84% inhibition. See Litchfield, J. T. and Wilcoxon, F., J. Pharmacol. Exp. Ther., 96, 99-113, (1949).
# morphine effect = experiment: Narcotic antagonist activity, modified rat tail flick test; type: in vivo, rats (male albino Wistar); details: for ED50: Rattus norvegicus, ip, read-out: AD50 (the source's name); for narcotic antagonist activity: in words
# Method: (B) Narcotic antagonist activity in rats (modified rat tail flick test).
# TEST B. EVALUATION OF NARCOTIC ANTAGONIST ACTIVITY
# The narcotic antagonist effects of test compounds were determined by a modification of the rat tail flick procedure of Harris and Pierson (J. Pharmacol. Exp. Ther. 143,141 [1964]).
# Male albino Wistar rats (100-120 g) were used for this study. A rat's tail is so placed so as to cover a photocell. Heat is applied by a lamp in a reflector with a timer being connected to the lamp and photocell so that the timer goes on when the light is turned on and is turned off when the photocell is uncovered. A rheostat, incorporated into a heating lamp is used to adjust the intensity of the light falling on the tail of the rat such that the rat's control reaction time is from two to four seconds. Animals with a control reaction time outside this range are rejected. The rheostat adjustment is made only if a significant proportion (more than 2 out of every 10 rats) of the reaction times are outside the range of two to four seconds. Groups of five rats were used each time, and two control times were determined at 60 and 30 minutes prior to subcutaneous injection of the drug.
# Thirty minutes after the last control run the test drug was given intraperitoneally. This was followed ten minutes later by an ED80 dose of morphine subcutaneously. The animals were retested at 20 minutes after the morphine injection. Control animals were given vehicle and morphine only. The data were calculated as follows: [formula]
# The data were plotted on log-probit paper and AD50 values, i.e., the dose required to inhibit the morphine effect by 50% within 95% confidence limits, were determined by the method of Litchfield and Wilcoxon.
# [1] = Mus musculus, sc, 0.25 h, mice, subcutaneous, acetic acid i.p. 15 minutes post drug, Table I, read-out: ED50
# [2] = rats, test drug i.p. 10 minutes before ED80 dose of morphine s.c., Table I
# [3] = mice, subcutaneous, acetic acid i.p. 15 minutes post drug, Table I
Structure (SMILES),ED50 (writhing; [1]) [mg/kg],ED50 (morphine effect; [2]) [mg/kg],analgesic/narcotic antagonist profile (writhing),other results
"CC[C@H]1CC(=O)[C@@H]2Oc3c(O)ccc4c3[C@@]23CCN(CC2CC2)[C@H](C4)[C@H]13 [TR-5126, 17-Cyclopropylmethyl-4,5α-epoxy-8β-ethyl-3-hydroxymorphinan-6-one]",7.8,0.25,,narcotic antagonist activity (morphine effect): especially effective narcotic antagonists
"CC[C@@H]1CC(=O)[C@@H]2Oc3c(O)ccc4c3[C@@]23CCN(CC2CC2)[C@H](C4)[C@H]13.Cl [TR-5436, 17-Cyclopropylmethyl-4,5α-epoxy-8α-ethyl-3-hydroxymorphinan-6-one Hydrochloride]",0.36,4.1,mixed analgesic/narcotic antagonist,analgesic activity (writhing): strong analgesic; narcotic antagonist activity (morphine effect): also exhibits narcotic antagonist activity
"COc1ccc2c3c1O[C@H]1C(=O)[C@@H](C)[C@H](C)[C@H]4[C@@H](C2)N(CC2CCC2)CC[C@@]341 [TR-5429, 17-Cyclobutylmethyl-7α,8β-dimethyl-4,5α-epoxy-3-methoxymorphinan-6-one]",> 10,~10,,
"COc1ccc2c3c1O[C@H]1C(=O)[C@@H](C)[C@H](C)[C@H]4[C@@H](C2)N(CC2CC2)CC[C@@]341 [TR-5410, 17-Cyclopropylmethyl-7α,8β-dimethyl-4,5-epoxy-3-methoxymorphinan-6-one Hydrochloride]",> 10,0.98,,
"CC[C@H]1CC(=O)[C@@H]2Oc3c(O)ccc4c3[C@@]23CCN(CC2CCCO2)[C@H](C4)[C@H]13.Cl (stereo partly drawn) [TR-5271, 4,5α-Epoxy-8β-ethyl-3-hydroxy-17-tetrahydrofurfuryl-morphinan-6-one Hydrochloride]",1.06,1.8,,analgesic activity (writhing): especially effective analgesics
"C[C@H]1C[C@H]2[C@H]3Cc4ccc(O)c5c4[C@@]2(CCN3CC2CC2)[C@@H](O5)C1=O [TR-5402, 17-Cyclopropylmethyl-4,5α-epoxy-3-hydroxy-7α-methylmorphinan-6-one]",0.42,,mixed analgesics/narcotic antagonists,"ED50 (writhing; Mus musculus, sc, agonist-antagonist potency, unit inferred, read-out: ED50): 0.42 mg/kg; ED50 (morphine effect; agonist-antagonist potency, unit inferred): 1.63 mg/kg"
"CC[C@@H]1CC(=O)[C@@H]2Oc3c(O)ccc4c3[C@@]23CCN(CC2CCC2)[C@H](C4)[C@H]13.Cl [TR-5437, 17-Cyclobutylmethyl-4,5α-epoxy-8α-ethyl-3-hydroxymorphinan-6-one Hydrochloride]",0.15,> 10,pure analgesic,
"C[C@@H]1[C@H]2[C@H]3Cc4ccc(O)c5c4[C@@]2(CCN3CC2CC2)[C@@H](O5)C(=O)[C@H]1C.Cl [TR-5416, 17-Cyclopropylmethyl-7α,8β-dimethyl-4,5α-epoxy-3-hydroxymorphinan-6-one Hydrochloride]",,0.57,pure narcotic antagonist,ED50 (writhing; [3]): IA 10
"CC[C@@H]1CC(=O)[C@@H]2Oc3c(OC)ccc4c3[C@@]23CCN(CC2CC2)[C@H](C4)[C@H]13.O=C(O)C(O)C(O)C(=O)O [TR-5427, 17-Cyclopropylmethyl-4,5α-epoxy-8α-ethyl-3-methoxymorphinan-6-one Tartrate]",> 10,> 10,,
"CC[C@H]1CC(=O)[C@@H]2Oc3c(OC)ccc4c3[C@@]23CCN(CC2CC2)[C@H](C4)[C@H]13.Cl [TR-5109, 17-Cyclopropylmethyl-4,5α-epoxy-8β-ethyl-3-methoxymorphinan-6-one Hydrochloride]",2.1,0.78,,analgesic activity (writhing): especially effective analgesics; narcotic antagonist activity (morphine effect): especially effective narcotic antagonists
"COc1ccc2c3c1O[C@H]1C(=O)[C@@H](C)C[C@H]4[C@@H](C2)N(CC2CC2)CC[C@]314 [TR-5394, Hydrochloride]",,1.6,,ED50 (writhing; [3]): IA 10
"Br.COc1ccc2c3c1O[C@H]1C(=O)CC[C@H]4[C@@H](C2)N(CC2CCC2)CC[C@]314 [TR-5108, 17-Cyclobutylmethyl-4,5α-epoxy-3-methoxymorphinan-6-one Hydrobromide, reference compound]",8.8,,,AD50 (morphine effect; [2]): IA.3
"CC[C@@H]1CC(=O)[C@@H]2Oc3c(OC)ccc4c3[C@@]23CCN(CC2CCC2)[C@H](C4)[C@H]13.O=C(O)C(O)C(O)C(=O)O [TR-5428, 17-Cyclobutylmethyl-4,5α-epoxy-8α-ethyl-3-methoxymorphinan-6-one Tartrate]",,,,ED50 (writhing; [3]): IA 10; AD50 (morphine effect; [2]): IA 10
"C[C@H]1C[C@H]2[C@H]3Cc4ccc(O)c5c4[C@@]2(CCN3CC2CCC2)[C@@H](O5)C1=O [TR-5404, 17-Cyclobutylmethyl-4,5α-epoxy-3-hydroxy-7α-methylmorphinan-6-one Hydrochloride]",0.3,13.2,,
"C[C@@H]1[C@H]2[C@H]3Cc4ccc(O)c5c4[C@@]2(CCN3CC2CCC2)[C@@H](O5)C(=O)[C@H]1C [TR-5430, 17-Cyclobutylmethyl-7α,8β-dimethyl-4,5α-epoxy-3-hydroxymorphinan-6-one]",5.8,2.5,mixed analgesics/narcotic antagonists,
"COc1ccc2c3c1O[C@H]1C(=O)[C@@H](C)C[C@H]4[C@@H](C2)N(CC2CCC2)CC[C@]314.Cl [TR-5403, 17-Cyclobutylmethyl-4,5α-epoxy-3-methoxy-7α-methylmorphinan-6-one Hydrochloride]",9,,,"ED50 (morphine effect; rats, vs morphine, *Estimated): 16.5 mg/kg"
"CC[C@H]1CC(=O)[C@@H]2Oc3c(O)ccc4c3[C@@]23CCN(CC2CCC2)[C@H](C4)[C@H]13 [TR-5115, 17-Cyclobutylmethyl-4,5α-epoxy-8β-ethyl-3-hydroxymorphinan-6-one]",9.2,0.52,,narcotic antagonist activity (morphine effect): especially effective narcotic antagonists
"COc1ccc2c3c1O[C@H]1C(=O)CC[C@H]4[C@@H](C2)N(CC2CC2)CC[C@]314 [TR-5095, 7,8-dihydro-17-cyclopropylmethylnorcodeinone, reference compound]",17,3.4,,
"C=CCN1CC[C@]23c4c5ccc(O)c4O[C@H]2C(=O)C[C@H](CC)[C@H]3[C@H]1C5.Cl [TR-5266, 17-Allyl-4,5α-epoxy-8β-ethyl-3-hydroxymorphinan-6-one Hydrochloride]",,0.58,,analgesic activity (writhing): except for TR-5266 they demonstrate analgesic activity; ED50 (writhing; [3]): IA 10; narcotic antagonist activity (morphine effect): especially effective narcotic antagonists
"C=CCN1CC[C@]23c4c5ccc(OC)c4O[C@H]2C(=O)C[C@H](CC)[C@H]3[C@H]1C5.Cl [TR-5256, 17-Allyl-4,5α-epoxy-8β-ethyl-3-methoxymorphinan-6-one Hydrochloride]",,5.6,some mixed analgesic narcotic antagonist activity but is not particularly potent in either respect,
